In article PMC8776730 (Nature Communications, 2022):

Columns and labels:
[1] = tested on: Recombinant Human Fibroblast Activation Protein-α (FAP-α); experiment: FAP-α in buffer: 50 mM Tris, 1 M NaCl, 1 mg/mL, BSA, pH 7.5; conditions: up to 12 h
MIA PaCa-2 cells [2] = experiment: Transwell migration assay; type: cell-based; conditions: MIA PaCa-2, 150 μM, 24 h; blank control = 1
Protocol: (§1) Fig. 5 The BIVA effect with enhanced targeting to pancreatic tumor cell for boundaries imaging. a Illustration of BIVA effect: active targeting and assembly/aggregate induced retention (AIR) effect. b Chemical structure of FITC labeling. c 2D and 3D confocal images of M2 with active targeting property and M1 with BIVA effect on MIA PaCa-2 cells after incubation for 1 h. d The distribution of M1 on MIA PaCa-2 cell. e ThT staining of the lysed cell membrane of MIA PaCa-2. f, Illustration of migration inhibition after treated by BIVA probe. g The image of the migrated cells after treatment of PBS (blank), M2, M4, and M1. Scale bar: 100 μm. h The pie diagram of quantitative statistical calculation of the migrated cells (blue) in different groups. The blank control was set as 100% migrated cells.
In order to further understand the contribution of the active targeting and AIR effect during locating of the cells, the cell transwell experiment was used to quantitively evaluate interference of the cell migration based on M1, M2, and M4 (Fig. 5f). As expected, untreated cells were easy to migrate to the lower chamber, while the cells treated with active targeting molecule M2 and assembled molecule M4, the migration of cell were reduced. Under the same molar concentration, the M1 treatment group had the most inference on cell migration (Fig. 5g). […] Based on those results, we speculate M1 can be more enriched in the tumor site and form fibers through assembly to inhibit tumor cell migration compared to M2 and M4 which have no ability to target and adhere on the cell membrane.
Transwell migration assay occurred in chemotaxis chambers containing 24 wells. […] Bottom chambers contained DMEM medium containing 10% FBS. After 24 h of treatment with M1, M2, and M4 (150 μM), we fixed cells using 4% paraformaldehyde and stained with 0.25% crystal violet solution. The stained cells were counted using a microscope.
Supplementary Fig. 20∣ The quantitative results of the migrated cells after treatment of PBS (blank), M2, […] and
M1 (Fig 5g). The mean of results of fiveparallel experiments is shown and data were expressed as mean ± SD (n=5).
pM1 = 5.85E-06, pM2 = 5.94E-05, pM4 = 3.16 E-04, Statisticalanalysis: one-way ANOVA followed by post hoc Tukey’s
(1 picture or pasted object on this page, not shown here)

MIA PaCa-2 cells [3] = experiment: Cellular imaging (CLSM) of FITC-labelled molecules; type: cell-based; conditions: FITC-labelled molecules, MIA PaCa-2 cells, 1 h incubation, CLSM
Protocol: To further confirm this hypothesis, the M1 and M2 were equally labeled by FITC for cell imaging (Fig. 5b). To simulate the dynamic physiological condition, the cell culture medium was replaced every 15 min. After 1 h of incubation with M1 and M2 at the same molecule molar concentration, there occurred significant differences between the two molecules (Fig. 5c). […] The huge difference can be explained by the fact that the secondary assembly rate broke the balance between the targeted ligand and receptor, and thus tended to a stable assembly interaction. The retention efficiency depended on the assembly rate constant Ka. Meanwhile, the rapid dynamic assembly of BIVA probe in situ around the cell membrane, and contributed to the efficient formation and retention of nanofibers on the cell profile. When the incubation time was delayed up to 2 h, some components could be endocytosed into the cells, but most of them were found on the membranes (Supplementary Fig. 18). […] Then, the isolated cells were collected and lysed, the extracted cell membrane fragments were stained with ThT. […] In order to verify the influence of the addition of the targeting module of the probe molecules, we explored the imaging of R-M1 and M4 on cells.
as §1
MIA PaCa-2 cells were digested with trypsin, counted with cell counting plate, diluted to 1 × 10^4 with DMEM medium, and 1 mL to 1 cm diameter confocal microscope dish was taken. The cells were incubated in […] atmosphere for 24 h. The medium containing M1 and M2 (50 μM) was replaced and incubated with the cells for 2 h. The cells were washed with PBS for 3 times. CLSM (Zeiss 710) was used to image cells under 40 × objective, excitation = 488 nm, and emission >520 nm.
Supplementary Fig. 19 ∣ CLSM images of Miapaca-2 cells treated with different molecules or M1 under different conditions. […]

## mPEG-AGGKLVFFGCGRGD
[1]
  not cleaved: no change of the retention peak

## mPEG-GPAKLVFFGC(IR783)GDTG [M4, the non-targeting molecule]
MIA PaCa-2 cells [2]
  emigrate (migrated cells relative to blank): 0.5282
MIA PaCa-2 cells [3]
  fluorescence signal on the cell membrane: only a small amount of fluorescence signal

## mPEG-GPAKLVFFGCGRGD
[1]
  cleaved bond: Pro-Ala
